Here are results for six compounds from publication PMC7947880 (Molecular Biology and Evolution, 2020).

Read-outs that look alike come from different tables or passages of the source.

Usually Kd stands for the concentration at which binding is half-saturated. The low end stands for tighter binding, the high end for weaker binding.

The target in assay [1] is T1, CYP51fx (sterol 14α-demethylase) (Methylococcus capsulatus, UniProt Q603T8).
T1 sequence (Q603T8 1-551): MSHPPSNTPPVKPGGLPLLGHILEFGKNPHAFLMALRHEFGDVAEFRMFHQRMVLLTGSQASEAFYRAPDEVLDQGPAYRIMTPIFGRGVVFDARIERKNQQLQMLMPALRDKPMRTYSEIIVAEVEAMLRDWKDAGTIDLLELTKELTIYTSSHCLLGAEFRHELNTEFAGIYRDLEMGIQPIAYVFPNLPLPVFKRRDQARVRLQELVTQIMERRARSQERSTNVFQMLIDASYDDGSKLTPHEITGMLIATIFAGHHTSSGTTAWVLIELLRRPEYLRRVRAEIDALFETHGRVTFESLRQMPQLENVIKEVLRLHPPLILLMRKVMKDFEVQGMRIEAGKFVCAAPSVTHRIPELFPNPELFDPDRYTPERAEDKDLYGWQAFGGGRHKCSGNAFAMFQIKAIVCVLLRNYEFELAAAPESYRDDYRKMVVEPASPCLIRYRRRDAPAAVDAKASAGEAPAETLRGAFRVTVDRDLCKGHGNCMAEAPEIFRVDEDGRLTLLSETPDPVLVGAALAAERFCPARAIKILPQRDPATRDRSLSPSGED
Kind of assay: UV-visible spectral titration. It is filed as binding.

The target in assay [2] is T1, CYP51fx (sterol 14α-demethylase). Nature of the assay: UV-visible spectral titration. It is filed as binding. This is another data set of the same source.
Assay [3] has the same target. Nature of the assay: UV-visible spectral titration. The assay is classed as binding. This is another data set of the same source.
Assay [4] shares this target. The assay is classed as biochemical.

Consider `CC(C)=CCC[C@@H](C)[C@H]1CC[C@@]2(C)[C@@H]3CC=C4[C@@H](CC[C@H](O)C4(C)C)[C@]3(C)CC[C@]12C` [cucurbitadienol], for which binding in assay [1] was characterised by a dissociation constant (Kd) of 670 nM.

`CC(C)=CCC[C@@H](C)[C@H]1CC[C@@]2(C)[C@@H]3CC[C@H]4C(C)(C)[C@@H](O)CC[C@@]45C[C@@]35CC[C@]12C` [cycloartenol] registered a Kd in assay [2] of 460 nM. The compound `C=C(CC[C@@H](C)[C@H]1CC[C@@]2(C)C3=C(CC[C@]12C)[C@@]1(C)CC[C@H](O)C(C)(C)[C@@H]1CC3)C(C)C` [eburicol] came in with a Kd in assay [3] of 48 ± 4 nM. Same read-out and setting: in the case of `CC(C)=CCC[C@@H](C)[C@H]1CC[C@@]2(C)C3=C(CC[C@]12C)[C@@]1(C)CC[C@H](O)C(C)(C)[C@@H]1CC3` [lanosterol] it was 94 ± 11 nM. For `C=C(CC[C@@H](C)[C@H]1CC[C@@]2(C)C3=C(CC[C@]12C)[C@@]1(C)CC[C@H](O)[C@@H](C)[C@@H]1CC3)C(C)C` [obtusifoliol], in assay [4], the “reconstituted 14α-demethylase turnover of radiolabeled sterol with E. coli flavo” value was 1.2 min⁻¹.

In the case of `CC(C)=CCC[C@@H](C)[C@H]1CC[C@@]2(C)[C@@H]3CC[C@H]4C(C)(C)[C@@H](O)CC[C@]4(C)C3=CC[C@]12C` [parkeol], the Kd in assay [2] was 260 nM.
